Several values for one entry are separate records, joined by “and”; a condition that tells them apart may be missing. Equal entries are not always repeated.
Experiment: molar heat capacity at constant pressure
Details: 101.33 kPa, Small (less than 1 g) adiabatic calorimetry

CCCCCCCC[n+]1ccn(C)c1.F[B-](F)(F)F [1-methyl-3-octylimidazolium tetrafluoroborate]
molar heat capacity at constant pressure
Details | Crystal | Glass
5 K | 1.51 J/K/mol | 1.78 J/K/mol
5.07 K | – | 1.855 J/K/mol
5.13 K | 1.622 J/K/mol | –
5.35 K | – | 2.152 J/K/mol
5.41 K | 1.892 J/K/mol | –
5.63 K | – | 2.475 J/K/mol
5.69 K | 2.194 J/K/mol | –
5.92 K | – | 2.835 J/K/mol
5.98 K | 2.524 J/K/mol | –
6.24 K | – | 3.263 J/K/mol
6.3 K | 2.928 J/K/mol | –
6.6 K | – | 3.776 J/K/mol
6.66 K | 3.407 J/K/mol | –
6.96 K | – | 4.337 J/K/mol
7.03 K | 3.928 J/K/mol | –
7.33 K | – | 4.94 J/K/mol
7.4 K | 4.511 J/K/mol | –
7.7 K | – | 5.576 J/K/mol
7.78 K | 5.114 J/K/mol | –
8.08 K | – | 6.258 J/K/mol
8.15 K | 5.768 J/K/mol | –
8.46 K | – | 6.988 J/K/mol
8.54 K | 6.47 J/K/mol | –
8.84 K | – | 7.752 J/K/mol
8.92 K | 7.205 J/K/mol | –
9.23 K | – | 8.549 J/K/mol
9.31 K | 7.974 J/K/mol | –
9.61 K | – | 9.38 J/K/mol
9.7 K | 8.786 J/K/mol | –
10 K | 9.42 J/K/mol | 10.23 J/K/mol and 10.24 J/K/mol
10.1 K | 9.617 J/K/mol | –
10.5 K | – | 11.4 J/K/mol
10.6 K | 10.74 J/K/mol | –
11.11 K | – | 12.83 J/K/mol
11.21 K | 12.14 J/K/mol | –
11.73 K | – | 14.33 J/K/mol
11.82 K | 13.61 J/K/mol | –
12.34 K | – | 15.89 J/K/mol
12.44 K | 15.14 J/K/mol | –
12.96 K | – | 17.5 J/K/mol
13.07 K | 16.72 J/K/mol | –
13.58 K | – | 19.15 J/K/mol
13.69 K | 18.35 J/K/mol | –
14.2 K | – | 20.8 J/K/mol
14.32 K | 20 J/K/mol | –
14.83 K | – | 22.52 J/K/mol
14.96 K | 21.77 J/K/mol | –
15 K | 21.91 J/K/mol | 23.07 J/K/mol
15.57 K | – | 24.74 J/K/mol
15.71 K | 23.92 J/K/mol | –
16.43 K | – | 27.33 J/K/mol
16.57 K | 26.44 J/K/mol | –
17.29 K | – | 29.78 J/K/mol
17.43 K | 28.91 J/K/mol | –
18.15 K | – | 32.35 J/K/mol
18.3 K | 31.39 J/K/mol | –
19.01 K | – | 34.88 J/K/mol
19.17 K | 33.9 J/K/mol | –
19.88 K | – | 37.39 J/K/mol
20 K | 36.32 J/K/mol | 37.79 J/K/mol
20.05 K | 36.43 J/K/mol | –
21.09 K | – | 41.05 J/K/mol
21.26 K | 40.04 J/K/mol | –
22.65 K | – | 45.73 J/K/mol
22.82 K | 44.72 J/K/mol | –
24.21 K | – | 50.47 J/K/mol
24.39 K | 49.42 J/K/mol | –
25 K | 51.22 J/K/mol | 52.78 J/K/mol
25.78 K | – | 55.12 J/K/mol
25.97 K | 54.13 J/K/mol | –
27.35 K | – | 59.68 J/K/mol
27.55 K | 58.67 J/K/mol | –
28.87 K | – | 64.05 J/K/mol
29.08 K | 63.06 J/K/mol | –
30 K | 65.66 J/K/mol | 67.29 J/K/mol
30.42 K | – | 68.44 J/K/mol
30.66 K | 67.49 J/K/mol | –
32.16 K | – | 73.29 J/K/mol
32.42 K | 72.33 J/K/mol | –
34.07 K | – | 78.36 J/K/mol
34.34 K | 77.4 J/K/mol | –
35 K | 79.1 J/K/mol | 80.71 J/K/mol
35.98 K | – | 83.21 J/K/mol
36.27 K | 82.31 J/K/mol | –
37.9 K | – | 87.91 J/K/mol
38.19 K | 87.1 J/K/mol | –
39.82 K | – | 92.51 J/K/mol
40 K | 91.48 J/K/mol | 92.99 J/K/mol
40.12 K | 91.75 J/K/mol | –
41.83 K | – | 97.3 J/K/mol
42.14 K | 96.59 J/K/mol | –
43.94 K | – | 102.2 J/K/mol
44.27 K | 101.5 J/K/mol | –
45 K | 103.2 J/K/mol | 104.6 J/K/mol
46.06 K | – | 107 J/K/mol
46.4 K | 106.3 J/K/mol | –
48.18 K | – | 111.7 J/K/mol
48.53 K | 111 J/K/mol | –
50 K | 114.1 J/K/mol | 115.6 J/K/mol
50.3 K | – | 116.2 J/K/mol
50.66 K | 115.5 J/K/mol | –
52.42 K | – | 120.6 J/K/mol
52.79 K | 119.8 J/K/mol | –
54.54 K | – | 124.8 J/K/mol
54.93 K | 124 J/K/mol | –
56.66 K | – | 128.7 J/K/mol
57.07 K | 128 J/K/mol | –
58.79 K | – | 132.7 J/K/mol
59.21 K | 131.9 J/K/mol | –
60 K | 133.3 J/K/mol | 135 J/K/mol
60.93 K | – | 136.6 J/K/mol
61.36 K | 135.7 J/K/mol | –
63.07 K | – | 140.4 J/K/mol
63.51 K | 139.5 J/K/mol | –
65.21 K | – | 144.2 J/K/mol
65.66 K | 143 J/K/mol | –
67.34 K | – | 147.9 J/K/mol
67.81 K | 146.6 J/K/mol | –
69.48 K | – | 151.6 J/K/mol
69.96 K | 150.1 J/K/mol | –
70 K | 150.1 J/K/mol | 152.5 J/K/mol
71.72 K | – | 155.5 J/K/mol
72.22 K | 153.7 J/K/mol | –
